A value given as a limit tells only on which side of the number the result lay.

One assay relates to P-Akt (S473). Nature of the assay: Cell based AlphaLISA assay, inhibition of P-Akt (S473) (mTORC2 substrate phosphorylation) in MDA-MB-468 cells. The conditions noted are these: Homo sapiens, MDA-MB-468, 4 h, AlphaLISA, two to four hours at 37° C., read-out: pIC50 for Inhibition of mTORC1 and mTORC2 Substrate Phosphorylation, p-AKT 1/2/3 -(S473) (converted). In a few lines:
(§1)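 IC50s come from control-normalized curve fits of duplicate Alpha signals. Cell lysates were probed with SureFire Ultra kits for mTORC1 substrates 4E-BP1 T37/46 and P70S6K T389 and mTORC2 substrate Akt S473 in MDA-MB-468 cells exposed to inhibitor.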

The test system of another assay is P-4E-BP1 (T37/46). Kind of assay: Cell based AlphaLISA assay, inhibition of P-4E-BP1 (T37/46) (mTORC1 substrate phosphorylation) in MDA-MB-468 cells. The note with it: Homo sapiens, MDA-MB-468, 4 h, AlphaLISA, two to four hours at 37° C., read-out: pIC50 for Inhibition of mTORC1 and mTORC2 Substrate Phosphorylation, P-4E-BP1-(T37/46) (converted). In a few lines: as §1

The test system of another assay is P-P70S6K (T389). Kind of assay: Cell based AlphaLISA assay, inhibition of P-P70S6K (T389) (mTORC1 substrate phosphorylation) in MDA-MB-468 cells. The conditions noted are these: Homo sapiens, 4 h, AlphaLISA, two to four hours at 37° C., read-out: pIC50 for Inhibition of mTORC1 and mTORC2 Substrate Phosphorylation, P-P70S6K-(T389) (converted). The procedure, abridged:
as §1

As to `COc1cccc2cc(-c3nc([C@H]4CC[C@H](C(=O)NCCOCCOCCOCCNC(=O)CCOCCOCCOCCOCCn5cc(CCCCO[C@@H]6CC[C@@H](C[C@@H](C)[C@@H]7CC(=O)[C@H](C)/C=C(\C)[C@@H](O)[C@@H](OC)C(=O)[C@H](C)C[C@H](C)/C=C/C=C/C=C(\C)[C@@H](OC)C[C@@H]8CC[C@@H](C)[C@@](O)(O8)C(=O)C(=O)N8CCCC[C@H]8C(=O)O7)C[C@H]6OC)nn5)CC4)n4ncnc(N)c34)[nH]c12` [Example 189], the IC50 in the assay with P-Akt (S473) is 0.00316 to 0.0316 µM; in the assay with P-4E-BP1 (T37/46), below 0.00316 µM; with P-P70S6K (T389), below 0.001 µM.

For the compound `CO[C@H]1C[C@@H]2CC[C@@H](C)[C@@](O)(O2)C(=O)C(=O)N2CCCC[C@H]2C(=O)O[C@H]([C@H](C)C[C@@H]2CC[C@@H](OCc3cccc(-c4cnc(N5CCN(S(=O)(=O)CCc6cn(CCOCCOCCOCCOCCC(=O)NCCCCn7nc(-c8ccc9oc(N)nc9c8)c8c(N)ncnc87)nn6)CC5)nc4)c3)[C@H](OC)C2)CC(=O)[C@H](C)/C=C(\C)[C@@H](O)[C@@H](OC)C(=O)[C@H](C)C[C@H](C)/C=C/C=C/C=C/1C` [Example 26], the IC50 with P-Akt (S473) is 0.00316 to 0.0316 µM; in the assay with P-4E-BP1 (T37/46) it was below 0.00316 µM; in the assay on P-P70S6K (T389), below 0.001 µM.

Turning to `COC(=O)NC1C[C@@H]2CC[C@@H](C)[C@@](O)(O2)C(=O)C(=O)N2CCCC[C@H]2C(=O)O[C@H]([C@H](C)C[C@@H]2CC[C@@H](OCCCCc3cn(CCOCCOCCOCCOCCOCCOCCOCCOCCC(=O)NCCCCn4nc(-c5ccc6oc(N)nc6c5)c5c(N)ncnc54)nn3)[C@H](OC)C2)CC(=O)[C@H](C)/C=C(\C)[C@@H](O)[C@@H](OC)C(=O)[C@H](C)C[C@H](C)/C=C/C=C/C=C/1C` (stereo partly drawn) [Example 38], the IC50 was 0.0316 to 1 µM in the assay with P-Akt (S473), 0.00316 to 0.0316 µM with P-4E-BP1 (T37/46) and 0.001 to 0.01 µM in the assay on P-P70S6K (T389).

Turning to `CO[C@H]1C[C@@H]2CC[C@@H](C)[C@@](O)(O2)C(=O)C(=O)N2CCCC[C@H]2C(=O)O[C@H]([C@H](C)C[C@@H]2CC[C@H](n3cc(CCCC(=O)NCCOCCOCCOCCC(=O)NCCOCCOCCC(=O)NCCCCn4nc(-c5cc6cc(O)ccc6[nH]5)c5c(N)ncnc54)nn3)[C@H](OC)C2)C[C@@H](OC)[C@H](C)/C=C(\C)[C@@H](O)[C@@H](OC)C(=O)[C@H](C)C[C@H](C)/C=C/C=C/C=C/1C` [Example 163], the IC50 in the assay on P-Akt (S473) is above 1 µM; in the assay on P-4E-BP1 (T37/46), above 1 µM; in the assay with P-P70S6K (T389) it was 0.01 to 1 µM.

With `CO[C@H]1C[C@@H]2CC[C@@H](C)[C@@](O)(O2)C(=O)C(=O)N2CCCC[C@H]2C(=O)O[C@H]([C@H](C)C[C@@H]2CC[C@@H](O)[C@H](OC)C2)C[C@@H](OC)[C@H](C)/C=C(\C)[C@@H](O)[C@@H](OC)C(=NOCc2cn(CCOCCOCCOCCOCCOCCC(=O)NCCCCn3nc(-c4ccc5oc(N)nc5c4)c4c(N)ncnc43)nn2)[C@H](C)C[C@H](C)/C=C/C=C/C=C/1C` [Example 12], the IC50 in the assay with P-Akt (S473), in the assay on P-4E-BP1 (T37/46) and with P-P70S6K (T389) was above 1 µM each time.

Regarding `CO[C@H]1C[C@@H]2CC[C@@H](C)[C@@](O)(O2)C(=O)C(=O)N2CCCC[C@H]2C(=O)O[C@H]([C@H](C)C[C@@H]2CC[C@H](n3cc(COC(=O)NCCOCCOCCC(=O)NCc4cnc(N5CCN(c6ncc(C(=O)NCCCCn7nc(-c8ccc9oc(N)nc9c8)c8c(N)ncnc87)cn6)CC5)nc4)nn3)[C@H](OC)C2)CC(=O)[C@H](C)/C=C(\C)[C@@H](O)[C@@H](OC)C(=O)[C@H](C)C[C@H](C)/C=C/C=C/C=C/1C` [Example 181], the results for the IC50 in the assay on P-Akt (S473), in the assay on P-4E-BP1 (T37/46) and in the assay with P-P70S6K (T389) were 0.00316 to 0.0316 µM, below 0.00316 µM and below 0.001 µM, respectively.

`CCO[C@@H]1C[C@@H]([C@H](C)C[C@@H]2CC[C@H](n3cc(CCCC(=O)NCCOCCOCCOCCC(=O)NCCOCCOCCC(=O)NCCCCn4nc(-c5cc6cc(O)ccc6[nH]5)c5c(N)ncnc54)nn3)[C@H](OC)C2)OC(=O)[C@@H]2CCCCN2C(=O)C(=O)[C@]2(O)O[C@@H](CC[C@H]2C)C[C@H](OC)/C(C)=C/C=C/C=C/[C@@H](C)C[C@@H](C)C(=O)[C@H](OC)[C@H](O)/C(C)=C/[C@H]1C` [Example 166]: the IC50 in the assay with P-Akt (S473), with P-4E-BP1 (T37/46) and in the assay with P-P70S6K (T389) was above 1 µM each time.

On to `CO[C@H]1C[C@@H]2CC[C@@H](C)[C@@](O)(O2)C(=O)C(=O)N2CCCC[C@H]2C(=O)O[C@H]([C@H](C)C[C@@H]2CC[C@H](n3cc(-c4cnc(N5CCN(c6ncc(C(=O)NCCOCCOCCOCCC(=O)NCCCCn7nc(-c8cc9cc(O)ccc9[nH]8)c8c(N)ncnc87)cn6)CC5)nc4)nn3)[C@H](OC)C2)CC(=O)[C@H](C)/C=C(\C)[C@@H](O)[C@@H](OC)C(=O)[C@H](C)C[C@H](C)/C=C/C=C/C=C/1C` [Example 114], for which the IC50 in the assay on P-Akt (S473) was above 1 µM; with P-4E-BP1 (T37/46), above 1 µM; in the assay with P-P70S6K (T389), below 0.001 µM.

On to `CO[C@H]1C[C@@H]2CC[C@@H](C)[C@@](O)(O2)C(=O)C(=O)N2CCCC[C@H]2C(=O)O[C@H]([C@H](C)C[C@@H]2CC[C@H](n3cc(CCCC(=O)NCCOCCOCCOCCC(=O)NCCOCCOCCOCCC(=O)NCCCCn4nc(-c5ccc6oc(N)nc6c5)c5c(N)ncnc54)nn3)[C@H](OC)C2)C/C(=N/OCc2ccccc2)[C@H](C)/C=C(\C)[C@@H](O)[C@@H](OC)C(=O)[C@H](C)C[C@H](C)/C=C/C=C/C=C/1C` [Example 174], for which the IC50 in the assay on P-Akt (S473) was above 1 µM; in the assay with P-4E-BP1 (T37/46) it was above 1 µM; in the assay with P-P70S6K (T389), 0.01 to 1 µM.

Consider `CO[C@H]1C[C@@H]2CC[C@@H](C)[C@@](O)(O2)C(=O)C(=O)N2CCCC[C@H]2C(=O)O[C@H]([C@H](C)C[C@@H]2CC[C@H](n3cc(-c4cnc(N5CCN(c6ncc(C(=O)NCCOCCOCCOCCOCCC(=O)NCCCCn7nc(-c8cc9cc(O)ccc9[nH]8)c8c(N)ncnc87)cn6)CC5)nc4)nn3)[C@H](OC)C2)CC(=O)[C@H](C)/C=C(\C)[C@@H](O)[C@@H](OC)C(=O)[C@H](C)C[C@H](C)/C=C/C=C/C=C/1C` [Example 116], for which the figures for the IC50 in the assay on P-Akt (S473), in the assay on P-4E-BP1 (T37/46) and with P-P70S6K (T389) were above 1 µM, 0.00316 to 0.0316 µM and below 0.001 µM, respectively.

For the compound `CO[C@H]1C[C@@H]2CC[C@@H](C)[C@@](O)(O2)C(=O)C(=O)N2CCCC[C@H]2C(=O)O[C@H]([C@H](C)C[C@@H]2CC[C@H](n3cc(COC(=O)NCCOCCOCCOCCC(=O)NCCOCCOCCC(=O)NCCCCn4nc(-c5cc6cc(O)ccc6[nH]5)c5c(N)ncnc54)nn3)[C@H](OC)C2)CC(=O)[C@H](C)/C=C(\C)[C@@H](O)[C@@H](OC)C(=O)[C@H](C)C[C@H](C)/C=C/C=C/C=C/1C` [Example 121], the IC50 in the assay on P-Akt (S473) is above 1 µM; with P-4E-BP1 (T37/46), 0.0316 to 1 µM; with P-P70S6K (T389) it was 0.001 to 0.01 µM.

Turning to `CO[C@H]1C[C@@H]2CC[C@@H](C)[C@@](O)(O2)C(=O)C(=O)N2CCCC[C@H]2C(=O)O[C@H]([C@H](C)C[C@@H]2CC[C@H](OCCCCc3cn(CCOCCOCCOCCOCCOCCOCCC(=O)NCCCCn4nc(-c5cccc(C(=O)NC6=NCCS6)c5)c5c(N)ncnc54)nn3)[C@H](OC)C2)CC(=O)[C@H](C)/C=C(\C)[C@@H](O)[C@@H](OC)C(=O)[C@H](C)C[C@H](C)/C=C/C=C/C=C/1C` (stereo in doubt) [Example 41], the IC50 is above 1 µM in the assay on P-Akt (S473), 0.00316 to 0.0316 µM in the assay on P-4E-BP1 (T37/46) and below 0.001 µM in the assay on P-P70S6K (T389).

With `COc1cccc2cc(-c3nc([C@H]4CC[C@H](C(=O)NCCOCCOCCOCCNC(=O)CCOCCOCCOCCOCCn5cc(CCCCO[C@@H]6CC[C@@H](C[C@@H](C)[C@@H]7C[C@@H](OC)[C@H](C)/C=C(\C)[C@@H](O)[C@@H](OC)C(=O)[C@H](C)C[C@H](C)/C=C/C=C/C=C(\C)[C@@H](OC)C[C@@H]8CC[C@@H](C)[C@@](O)(O8)C(=O)C(=O)N8CCCC[C@H]8C(=O)O7)C[C@H]6OC)nn5)CC4)n4ncnc(N)c34)[nH]c12` [Example 190], the IC50 is 0.0316 to 1 µM with P-Akt (S473), 0.00316 to 0.0316 µM in the assay on P-4E-BP1 (T37/46) and below 0.001 µM in the assay on P-P70S6K (T389).

With `CO[C@H]1C[C@@H]2CC[C@@H](C)[C@@](O)(O2)C(=O)C(=O)N2CCCC[C@H]2C(=O)O[C@H]([C@H](C)C[C@@H]2CC[C@H](n3cc(CCCC(=O)N(C)CCOCCOCCOCCC(=O)N(C)CCOCCOCCC(=O)N(C)CCCCn4nc(-c5ccc6oc(N)nc6c5)c5c(N)ncnc54)nn3)[C@H](OC)C2)CC(=O)[C@H](C)/C=C(\C)[C@@H](O)[C@@H](OC)C(=O)[C@H](C)C[C@H](C)/C=C/C=C/C=C/1C` [Example 180], the IC50 is above 1 µM with P-Akt (S473), above 1 µM in the assay on P-4E-BP1 (T37/46) and 0.001 to 0.01 µM with P-P70S6K (T389).

In the case of `CO[C@H]1C[C@@H]2CC[C@@H](C)[C@@](O)(O2)C(=O)C(=O)N2CCCC[C@H]2C(=O)O[C@H]([C@H](C)C[C@@H]2CC[C@@H](OCCCCc3cn(CCOCCOCCOCCOCCOCCOCCOCCOCCC(=O)N4CCC(Cn5nc(-c6ccc7oc(N)nc7c6)c6c(N)ncnc65)C4)nn3)[C@H](OC)C2)CC(=O)[C@H](C)/C=C(\C)[C@@H](O)[C@@H](OC)C(=O)[C@H](C)C[C@H](C)/C=C/C=C/C=C/1C` (stereo partly drawn) [Example 7], the IC50 was below 0.00316 µM in the assay with P-Akt (S473), below 0.00316 µM with P-4E-BP1 (T37/46) and below 0.001 µM in the assay with P-P70S6K (T389).

As for `CO[C@H]1C[C@@H]2CC[C@@H](C)[C@@](O)(O2)C(=O)C(=O)N2CCCC[C@H]2C(=O)O[C@H]([C@H](C)C[C@@H]2CC[C@@H](OCCCCc3cn(CCOCCOCCOCCOCCOCCOCCC(=O)N4CCc5cc(Cn6nc(-c7ccc8oc(N)nc8c7)c7c(N)ncnc76)ccc5C4)nn3)[C@H](OC)C2)CC(=O)[C@H](C)/C=C(\C)[C@@H](O)[C@@H](OC)C(=O)[C@H](C)C[C@H](C)/C=C/C=C/C=C/1C` [Example 89], the IC50 in the assay with P-Akt (S473) was 0.00316 to 0.0316 µM; in the assay with P-4E-BP1 (T37/46), below 0.00316 µM; in the assay with P-P70S6K (T389), below 0.001 µM.
